Reference: US20260297060A1, “COMPOUNDS FOR THE DEGRADATION OF MUTANT BRAF” (C4 THERAPEUTICS, INC., priority 2023, published 2026)

Columns and labels:
A375 = A375 cell viability assay (Example 15); assay type: cell-based, human; settings: for cytotoxicity (in words): A375 cells; for effect on cancer cell viability: human, a375 cells, 0.1 µM
Procedure: FIG. 83 is a line graph showing the results of Compound 26, Compound 26-NMe, Compound 141, and Compound 141-NMe in an A375 viability assay. The y-axis is viability in % and the x-axis is concentration (nM). The experiment was conducted as described in Example 15.
This robust degradation activity is surprising in view of the minimal inhibition-based activity of selected compounds. […] However, the degradation deficient versions of Compound 26 and Compound 141 (N-methyl analogs) had minimal effect on cell viability at a concentration of 100 nM (see FIG. 83 and Example 15).

[1] = tested on: luciferase-tagged A375 human melanoma CNS tumor; test: Survival of mice in CNS tumor study (BRAF intracranial model) (Example 12); assay type: in vivo, human A375 CNS xenograft in mice; settings: versus encorafenib
Procedure: FIG. 48 is the survival curve for the mice after administration of vehicle, encorafenib, Compound 26, Compound 141 in CNS tumor study. The x-axis is time measured in days and the y-axis is probability of survival. The experiment was conducted as described in Example 12.
FIG. 85 is an extended survival curve for the BRAF intracranial model experiment after administration of vehicle, encorafenib, Compound 26, and Compound 141 in the CNS tumor study. The x-axis is time measured in days and the y-axis is probability of survival. The experiment was conducted as described in Example 12.

BRAF V600E = test: Pharmacodynamics of BRAF protein degradation in inoculated CNS tumors (Example 12); assay type: in vivo, human A375 CNS xenograft in mice; settings: CNS tumor-bearing mice, after administration, versus encorafenib, FIG. 51
Procedure: FIG. 51 is a plot showing the pharmacodynamics of BRAF protein degradation in the inoculated CNS tumors. […] The experiment was conducted as described in Example 12.

[2] = tested on: A375 human melanoma cancer cell derived xenografts, intracranial; test: Example 12 efficacy study, intracranial A375-luciferase CNS model: survival; assay type: in vivo, BALB/c nude mice; settings: 10 mg/kg PO/BID; for survival rate / mice that have demonstrated end point cut offs and were terminated: as of day 75; for median survival: dosing stopped on day 120, survival curve up to 200 days; for mice that have demonstrated end point cut offs and were terminated: groups of 8 mice
Procedure: For the efficacy study, agents were tested in A375 human melanoma cancer cell derived xenografts (CDX). This cell line was isolated from the primary melanoma of a person and is known to have a homozygous BRAF V600E mutation. The A375 tumor cells were maintained in vitro in DMEM medium supplemented with 10% fetal bovine serum and 1% Penicillin-Streptomycin at 37° C. in an atmosphere of 5% CO2 in air. The tumor cells were routinely subcultured twice weekly. The cells growing in an exponential growth phase were harvested and counted for tumor inoculation.
For this CNS study, A375 cells with a luciferase tag for tracking tumor cell signal, were injected intracranially into 6-8-week-old female BALB/c nude mice (Zhejiang Vital River Laboratory Animal Co., LTD. Beijing, China). The mice were anaesthetized, restrained, and sterilized prior to surgery. A sagittal cut was made above the anterior parietal and occipital bone with sterilized scalpel, the skull was unrevealed and cleaned with cotton bud, in this case the anterior fontanel could be available. A 2 mm hole was created to the right of the anterior fontanel and 0.5 mm ahead of the coronal on the skull with a cranial drill. Cell suspensions in 20% Matrigel were mixed and aspirated into injector carefully to avoid bubbles and wiped to avoid extracranial tumor genesis. The needle was inserted vertically into the cranial hole and the cell mixture was slowly injected for 2 minutes and held for another minute to decrease the drainage of the cell suspension. The wound was closed, and a subcutaneous injection of 5 mg/kg Meloxicam was given to relieve the pain and continued for 3 days. The mice were monitored closely until they woke up after the surgery. During the study, the care and use of animals was conducted in accordance with the regulations of the Association for Assessment and Accreditation of Laboratory Animal Care (AAALAC). After inoculation, the animals were checked daily for morbidity and mortality. At the time of routine monitoring, the animals would be checked for any effects of tumor growth and treatments on normal behavior such as mobility, food and water consumption, body weight gain/loss, eye/hair matting, and any other abnormal effect.
The administration of the test agents began three days after inoculation. CNS tumor-bearing mice were randomly assigned to groups of 8 mice and administered Compound 26 at 10 mg/kg orally (PO) twice a day (BID), Compound 141 at 10 mg/kg PO/BID, encorafenib at 35 mg/kg once a day orally, (PO/QD), or the vehicle alone PO/BID. Measurements for the presence of the A375 luciferase (CRL-1619-LUC2, ATCC, Manassas, VA, USA) cells within the CNS were done with IVIS Lumina III machine. Images were collected twice weekly to follow the growth of the models. The tumor-bearing mice were weighed and intraperitoneally administered luciferin (Perkin Elmer Inc-122799) at a dosage of 150 mg/kg. After 10 min, mice were pre-anesthetized with the mixture gas of oxygen and isoflurane. The bioluminescence value at 15 min post luciferin injection was recorded as the final value and plotted. The endpoint for individual mice was reached when the mouse body weight decreased by 20% when compared to their starting weight.

| Structure (SMILES) | cytotoxicity (in words) (A375) | effect on cancer cell viability (A375) | survival of CNS tumor-bearing mice compared with encorafenib [1] | BRAF V600E levels in the brain tumor compared with encorafenib (BRAF V600E) | survival rate [2] | median survival [2] | mice that have demonstrated end point cut offs and were terminated [2] |
| --- | --- | --- | --- | --- | --- | --- | --- |
| CCN(C)S(=O)(=O)Nc1ccc(F)c(Oc2ccc3ncn([C@H]4COC5(CCN(C6CC7(C6)CN(c6cc8c(cc6F)c(N6CCC(=O)NC6=O)nn8C)C7)CC5)C4)c(=O)c3c2)c1C#N [Compound 26, (3R)-3-[6-[2-cyano-3-[[ethyl(methyl)sulfamoyl]amino]-6-fluoro-phenoxy]-4-oxo-quinazolin-3-yl]-8-[2-[3-(2,4-dioxohexahydropyrimidin-1-yl)-5-fluoro-1-methyl-indazol-6-yl]-2-azaspiro[3.3]heptan-6-yl]-1-oxa-8-azaspiro[4.5]decane] | potent cytotoxic agents | ≥ 30% | lived significantly longer | much lower | 75% | 91 days | two |
| CCN(C)S(=O)(=O)Nc1ccc(F)c(Oc2ccc3ncn(C4CC5(CCN(C6CC7(C6)CN(c6cc8c(cc6F)c(N6CCC(=O)NC6=O)nn8C)C7)CC5)C4)c(=O)c3c2)c1C#N (centres unmarked) [Compound 141, 6-[2-cyano-3-[[ethyl(methyl)sulfamoyl]amino]-6-fluoro-phenoxy]-3-[7-[2-[3-(2,4-dioxohexahydropyrimidin-1-yl)-5-fluoro-1-methyl-indazol-6-yl]-2-azaspiro[3.3]heptan-6-yl]-7-azaspiro[3.5]nonan-2-yl]-4-oxo-quinazoline] | potent cytotoxic agents | ≥ 30% | lived significantly longer | much lower | 75% | 89.5 days | 2 mice |
